{
  "source": "patent US12281080B2",
  "about": "“Quinoline-based compounds and methods of inhibiting CDK8/19” (University of South Carolina, priority 2018, dated 2025)",
  "test_in_all_cases": "KINOMEscan scanMAX",
  "key": {"[1]": {"target": "ABL1(T315I)-nonphosphorylated (Homo sapiens (Human), UniProt P00519, T315I)", "format": "binding", "settings": "2000 nM; read-out: Percent Control"}, "[2]": {"target": "ACVR1B (Homo sapiens (Human), UniProt P36896)", "format": "binding", "settings": "2000 nM; read-out: Percent Control"}, "[3]": {"target": "ADCK3 (CABC1) (Homo sapiens (Human), UniProt Q8NI60)", "format": "binding", "settings": "2000 nM; read-out: Percent Control"}, "[4]": {"target": "CAMK1B (PNCK) (Homo sapiens (Human), UniProt Q6P2M8)", "sequence (Q6P2M8 whole entry)": "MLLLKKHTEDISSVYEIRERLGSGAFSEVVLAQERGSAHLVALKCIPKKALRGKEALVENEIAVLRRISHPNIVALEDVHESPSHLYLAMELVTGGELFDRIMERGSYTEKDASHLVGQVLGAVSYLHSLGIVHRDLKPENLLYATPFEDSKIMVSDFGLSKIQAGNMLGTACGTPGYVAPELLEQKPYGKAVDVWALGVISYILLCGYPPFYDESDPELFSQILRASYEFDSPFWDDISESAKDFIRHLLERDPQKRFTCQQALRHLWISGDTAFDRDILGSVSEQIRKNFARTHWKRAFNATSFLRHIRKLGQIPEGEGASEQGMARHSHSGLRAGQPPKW", "format": "binding", "settings": "2000 nM; read-out: Percent Control"}, "[5]": {"target": "CDC2L2 (Homo sapiens (Human), UniProt Q9UQ88)", "format": "binding", "settings": "2000 nM; read-out: Percent Control"}, "[6]": {"target": "CDKL2 (Homo sapiens (Human), UniProt Q92772)", "format": "binding", "settings": "2000 nM; read-out: Percent Control"}, "[7]": {"target": "CDKL3 (Homo sapiens (Human), UniProt Q8IVW4)", "format": "binding", "settings": "2000 nM; read-out: Percent Control"}, "[8]": {"target": "CSNK1G2 (Homo sapiens (Human), UniProt P78368)", "format": "binding", "settings": "2000 nM; read-out: Percent Control"}, "[9]": {"target": "EGFR(G719S) (Homo sapiens (Human), UniProt P00533, G719S)", "sequence (P00533 25-1210 G719S)": "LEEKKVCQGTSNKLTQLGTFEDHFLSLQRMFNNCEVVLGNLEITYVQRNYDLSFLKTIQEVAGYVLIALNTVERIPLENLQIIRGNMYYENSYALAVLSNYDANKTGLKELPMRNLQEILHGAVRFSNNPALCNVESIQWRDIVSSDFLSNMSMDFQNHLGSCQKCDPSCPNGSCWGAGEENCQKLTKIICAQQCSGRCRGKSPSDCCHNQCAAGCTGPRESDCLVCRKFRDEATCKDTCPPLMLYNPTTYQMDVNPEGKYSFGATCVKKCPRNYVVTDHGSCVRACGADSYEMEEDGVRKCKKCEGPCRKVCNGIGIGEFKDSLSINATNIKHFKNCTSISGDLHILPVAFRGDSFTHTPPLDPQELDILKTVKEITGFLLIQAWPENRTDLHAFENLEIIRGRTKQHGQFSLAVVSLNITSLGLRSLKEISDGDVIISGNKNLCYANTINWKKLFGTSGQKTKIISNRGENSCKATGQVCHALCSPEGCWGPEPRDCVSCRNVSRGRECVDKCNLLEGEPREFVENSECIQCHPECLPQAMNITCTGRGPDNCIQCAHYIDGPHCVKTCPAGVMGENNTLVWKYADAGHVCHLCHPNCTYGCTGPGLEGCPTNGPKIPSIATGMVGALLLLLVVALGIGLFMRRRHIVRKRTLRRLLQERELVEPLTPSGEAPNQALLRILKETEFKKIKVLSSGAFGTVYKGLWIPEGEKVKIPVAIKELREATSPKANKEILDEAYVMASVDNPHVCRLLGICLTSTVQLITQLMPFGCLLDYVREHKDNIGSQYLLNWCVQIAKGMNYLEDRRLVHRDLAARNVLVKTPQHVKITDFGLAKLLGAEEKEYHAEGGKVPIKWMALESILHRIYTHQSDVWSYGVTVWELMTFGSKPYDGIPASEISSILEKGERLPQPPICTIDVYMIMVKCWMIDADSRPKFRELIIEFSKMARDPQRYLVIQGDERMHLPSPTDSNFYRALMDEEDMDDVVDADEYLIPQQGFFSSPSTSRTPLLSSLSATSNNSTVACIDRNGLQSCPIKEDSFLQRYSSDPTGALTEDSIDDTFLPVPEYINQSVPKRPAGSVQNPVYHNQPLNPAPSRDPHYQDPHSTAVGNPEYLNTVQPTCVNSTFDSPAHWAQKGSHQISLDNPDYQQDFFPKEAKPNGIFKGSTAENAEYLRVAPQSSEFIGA", "format": "binding", "settings": "2000 nM; read-out: Percent Control"}, "[10]": {"target": "EPHA2 (Homo sapiens (Human), UniProt P29317)", "format": "binding", "settings": "2000 nM; read-out: Percent Control"}, "[11]": {"target": "EPHA3 (Homo sapiens (Human), UniProt P29320)", "sequence (P29320 21-983)": "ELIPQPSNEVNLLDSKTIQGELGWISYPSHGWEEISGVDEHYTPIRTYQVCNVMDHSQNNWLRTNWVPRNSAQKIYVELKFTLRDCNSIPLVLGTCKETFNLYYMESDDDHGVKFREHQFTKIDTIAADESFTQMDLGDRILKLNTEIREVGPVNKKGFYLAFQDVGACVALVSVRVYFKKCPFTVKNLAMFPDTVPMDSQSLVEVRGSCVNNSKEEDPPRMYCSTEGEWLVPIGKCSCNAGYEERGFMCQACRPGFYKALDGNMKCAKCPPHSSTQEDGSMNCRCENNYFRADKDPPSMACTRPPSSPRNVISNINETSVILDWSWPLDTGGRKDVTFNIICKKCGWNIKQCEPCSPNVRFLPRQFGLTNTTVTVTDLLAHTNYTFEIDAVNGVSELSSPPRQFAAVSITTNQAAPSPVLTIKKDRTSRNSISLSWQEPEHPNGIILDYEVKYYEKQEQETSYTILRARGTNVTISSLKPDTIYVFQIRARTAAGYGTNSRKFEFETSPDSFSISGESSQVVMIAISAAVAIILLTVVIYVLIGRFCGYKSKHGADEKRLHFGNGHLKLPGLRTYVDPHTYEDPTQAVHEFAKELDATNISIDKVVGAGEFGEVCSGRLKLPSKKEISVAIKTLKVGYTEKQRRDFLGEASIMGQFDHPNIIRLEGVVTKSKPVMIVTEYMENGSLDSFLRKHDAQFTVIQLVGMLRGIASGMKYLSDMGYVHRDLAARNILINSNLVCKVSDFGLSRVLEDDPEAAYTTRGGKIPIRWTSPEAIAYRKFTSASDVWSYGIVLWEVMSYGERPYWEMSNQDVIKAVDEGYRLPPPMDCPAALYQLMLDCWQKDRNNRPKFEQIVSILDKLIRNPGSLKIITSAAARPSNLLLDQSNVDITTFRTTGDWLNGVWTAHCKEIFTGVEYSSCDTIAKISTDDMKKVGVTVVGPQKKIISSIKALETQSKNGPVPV", "format": "binding", "settings": "2000 nM; read-out: Percent Control"}, "[12]": {"target": "EPHA5 (Homo sapiens (Human), UniProt P54756)", "format": "binding", "settings": "2000 nM; read-out: Percent Control"}, "[13]": {"target": "EPHA6 (Homo sapiens (Human), UniProt Q9UF33)", "format": "binding", "settings": "2000 nM; read-out: Percent Control"}, "[14]": {"target": "ERK8 (MAPK15) (Homo sapiens (Human), UniProt Q8TD08)", "format": "binding", "settings": "2000 nM; read-out: Percent Control"}, "[15]": {"tested_on": "FLT3(ITD, D835V)", "format": "binding, human", "settings": "2000 nM"}, "[16]": {"target": "GRK3 (ADRBK2) (Homo sapiens (Human), UniProt P35626)", "format": "binding", "settings": "2000 nM; read-out: Percent Control"}, "[17]": {"target": "HPK1 (MAP4K1) (Homo sapiens (Human), UniProt Q92918)", "format": "binding", "settings": "2000 nM; read-out: Percent Control"}, "[18]": {"target": "IRAK4 (Homo sapiens (Human), UniProt Q9NWZ3)", "format": "binding", "settings": "2000 nM; read-out: Percent Control"}, "[19]": {"target": "JNK3 (MAPK10) (Homo sapiens (Human), UniProt P53779)", "format": "binding", "settings": "2000 nM; read-out: Percent Control"}, "[20]": {"target": "LRRK2(G2019S) (Homo sapiens (Human), UniProt Q5S007, G2019S)", "format": "binding", "settings": "2000 nM; read-out: Percent Control"}, "[21]": {"target": "LZK (MAP3K13) (Homo sapiens (Human), UniProt O43283)", "format": "binding", "settings": "2000 nM; read-out: Percent Control"}, "[22]": {"target": "MAP3K2 (Homo sapiens (Human), UniProt Q9Y2U5)", "format": "binding", "settings": "2000 nM; read-out: Percent Control"}, "[23]": {"target": "MET(Y1235D) (Homo sapiens (Human), UniProt P08581, Y1235D)", "sequence (P08581 25-1390 Y1235D)": "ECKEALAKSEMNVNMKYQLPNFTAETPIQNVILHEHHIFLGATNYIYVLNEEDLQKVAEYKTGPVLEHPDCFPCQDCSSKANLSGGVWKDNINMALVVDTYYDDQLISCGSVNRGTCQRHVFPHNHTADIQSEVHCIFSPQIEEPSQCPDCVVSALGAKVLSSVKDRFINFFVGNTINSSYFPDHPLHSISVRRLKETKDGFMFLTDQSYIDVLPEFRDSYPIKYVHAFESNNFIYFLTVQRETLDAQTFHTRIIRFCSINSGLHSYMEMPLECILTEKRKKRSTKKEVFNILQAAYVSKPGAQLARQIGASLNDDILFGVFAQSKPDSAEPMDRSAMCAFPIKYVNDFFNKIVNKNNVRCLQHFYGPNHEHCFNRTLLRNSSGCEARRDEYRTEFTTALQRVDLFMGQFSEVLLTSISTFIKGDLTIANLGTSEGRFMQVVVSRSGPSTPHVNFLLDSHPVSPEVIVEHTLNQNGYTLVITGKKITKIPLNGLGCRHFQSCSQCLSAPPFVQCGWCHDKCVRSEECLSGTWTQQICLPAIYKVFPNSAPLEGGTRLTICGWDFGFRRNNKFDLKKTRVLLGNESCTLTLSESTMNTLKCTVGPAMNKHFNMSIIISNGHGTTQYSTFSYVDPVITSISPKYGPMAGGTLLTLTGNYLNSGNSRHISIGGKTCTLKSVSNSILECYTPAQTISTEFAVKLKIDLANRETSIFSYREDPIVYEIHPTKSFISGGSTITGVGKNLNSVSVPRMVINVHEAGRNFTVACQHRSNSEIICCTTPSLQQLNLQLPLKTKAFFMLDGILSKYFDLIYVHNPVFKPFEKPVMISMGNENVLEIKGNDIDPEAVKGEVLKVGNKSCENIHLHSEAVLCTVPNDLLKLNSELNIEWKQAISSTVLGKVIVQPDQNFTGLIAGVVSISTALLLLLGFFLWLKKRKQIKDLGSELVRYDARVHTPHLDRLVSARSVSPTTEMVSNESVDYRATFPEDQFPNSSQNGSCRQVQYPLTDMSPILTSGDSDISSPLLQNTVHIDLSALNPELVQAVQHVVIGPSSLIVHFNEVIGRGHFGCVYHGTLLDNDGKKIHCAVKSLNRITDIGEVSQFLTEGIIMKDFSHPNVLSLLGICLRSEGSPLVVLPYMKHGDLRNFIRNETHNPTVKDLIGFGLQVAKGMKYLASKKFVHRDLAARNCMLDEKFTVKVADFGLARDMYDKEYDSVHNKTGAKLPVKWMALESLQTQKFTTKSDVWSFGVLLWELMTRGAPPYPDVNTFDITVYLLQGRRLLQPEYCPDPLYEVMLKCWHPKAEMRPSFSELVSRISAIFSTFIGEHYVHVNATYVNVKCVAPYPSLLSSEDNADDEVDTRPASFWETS", "format": "binding", "settings": "2000 nM; read-out: Percent Control"}, "[24]": {"target": "MKNK1 (Homo sapiens (Human), UniProt Q9BUB5)", "format": "binding", "settings": "2000 nM; read-out: Percent Control"}, "[25]": {"target": "MYLK4 (Homo sapiens (Human), UniProt Q86YV6)", "format": "binding", "settings": "2000 nM; read-out: Percent Control"}, "[26]": {"target": "NEK11 (Homo sapiens (Human), UniProt Q8NG66)", "format": "binding", "settings": "2000 nM; read-out: Percent Control"}, "[27]": {"target": "p38-gamma (MAPK12) (Homo sapiens (Human), UniProt P53778)", "format": "binding", "settings": "2000 nM; read-out: Percent Control"}, "[28]": {"target": "PAK7 (Homo sapiens (Human), UniProt Q9P286)", "format": "binding", "settings": "2000 nM; read-out: Percent Control"}, "[29]": {"target": "RAF1 (Homo sapiens (Human), UniProt P04049)", "format": "binding", "settings": "2000 nM; read-out: Percent Control"}, "[30]": {"target": "RIPK2 (Homo sapiens (Human), UniProt O43353)", "format": "binding", "settings": "2000 nM; read-out: Percent Control"}, "[31]": {"target": "ROS1 (Homo sapiens (Human), UniProt P08922)", "format": "binding", "settings": "2000 nM; read-out: Percent Control"}, "[32]": {"target": "RSK1(Kin.Dom.1-N-terminal) (RPS6KA1) (Homo sapiens (Human), UniProt Q15418)", "format": "binding", "settings": "2000 nM; read-out: Percent Control"}, "[33]": {"target": "RSK2(Kin.Dom.2-C-terminal) (RPS6KA3) (Homo sapiens (Human), UniProt P51812)", "format": "binding", "settings": "2000 nM; read-out: Percent Control"}, "[34]": {"target": "SgK110 (Homo sapiens (Human), UniProt P0C264)", "format": "binding", "settings": "2000 nM; read-out: Percent Control"}, "[35]": {"target": "TNK2 (Homo sapiens (Human), UniProt Q07912)", "sequence (Q07912 whole entry)": "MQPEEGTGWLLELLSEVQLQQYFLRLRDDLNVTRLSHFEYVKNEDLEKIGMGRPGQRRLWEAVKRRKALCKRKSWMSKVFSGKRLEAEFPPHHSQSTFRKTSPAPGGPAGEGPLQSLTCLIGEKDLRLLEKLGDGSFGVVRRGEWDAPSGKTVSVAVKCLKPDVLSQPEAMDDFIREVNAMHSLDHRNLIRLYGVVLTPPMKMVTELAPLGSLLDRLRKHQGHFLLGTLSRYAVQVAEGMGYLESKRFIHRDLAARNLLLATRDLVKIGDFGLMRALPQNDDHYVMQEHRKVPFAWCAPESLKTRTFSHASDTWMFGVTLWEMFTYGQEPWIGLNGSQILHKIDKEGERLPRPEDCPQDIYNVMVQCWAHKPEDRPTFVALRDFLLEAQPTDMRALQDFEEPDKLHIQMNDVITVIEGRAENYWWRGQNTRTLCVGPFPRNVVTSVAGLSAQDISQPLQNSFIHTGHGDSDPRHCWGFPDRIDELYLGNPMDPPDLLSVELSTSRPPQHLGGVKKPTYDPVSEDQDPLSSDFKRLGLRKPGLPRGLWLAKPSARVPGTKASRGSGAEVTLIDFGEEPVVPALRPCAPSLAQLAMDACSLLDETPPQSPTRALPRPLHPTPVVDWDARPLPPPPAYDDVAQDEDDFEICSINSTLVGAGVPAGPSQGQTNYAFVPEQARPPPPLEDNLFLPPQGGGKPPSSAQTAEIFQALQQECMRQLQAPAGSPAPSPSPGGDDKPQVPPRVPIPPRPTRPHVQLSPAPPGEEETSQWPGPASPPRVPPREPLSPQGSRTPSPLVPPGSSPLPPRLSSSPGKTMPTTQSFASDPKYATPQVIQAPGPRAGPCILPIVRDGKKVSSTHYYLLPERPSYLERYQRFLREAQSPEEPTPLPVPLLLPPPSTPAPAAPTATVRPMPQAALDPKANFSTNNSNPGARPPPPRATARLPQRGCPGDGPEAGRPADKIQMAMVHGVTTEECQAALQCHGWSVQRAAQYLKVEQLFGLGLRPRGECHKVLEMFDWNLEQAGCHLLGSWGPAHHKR", "format": "binding", "settings": "2000 nM; read-out: Percent Control"}, "[36]": {"target": "ULK2 (Homo sapiens (Human), UniProt Q8IYT8)", "format": "binding", "settings": "2000 nM; read-out: Percent Control"}, "[37]": {"target": "VRK2 (Homo sapiens (Human), UniProt Q86Y07)", "format": "binding", "settings": "2000 nM; read-out: Percent Control"}, "[38]": {"target": "YANK2 (STK32B) (Homo sapiens (Human), UniProt Q9NY57)", "format": "binding", "settings": "2000 nM; read-out: Percent Control"}, "[39]": {"target": "YSK1 (STK25) (Homo sapiens (Human), UniProt O00506)", "format": "binding", "settings": "2000 nM; read-out: Percent Control"}},
  "data": [
    {"smiles": "CN1CCN(C(=O)c2ccc3cc(CCNc4ccnc5ccc(C#N)cc45)ccc3c2)CC1", "note": "[compound 6148, 4-((2-(6-(4-methylpiperazine-1-carbonyl)naphthalen-2-yl)ethyl)amino)quinoline-6-carbonitrile]", "values": [
      {"measurement": "remaining binding at 2 µM", "setting": "[1]", "result": 90, "unit": "%"},
      {"measurement": "remaining binding at 2 µM", "setting": "[2]", "result": 92, "unit": "%"},
      {"measurement": "remaining binding at 2 µM", "setting": "[3]", "result": 100, "unit": "%"},
      {"measurement": "remaining binding at 2 µM", "setting": "[4]", "result": 92, "unit": "%"},
      {"measurement": "remaining binding at 2 µM", "setting": "[5]", "result": 97, "unit": "%"},
      {"measurement": "remaining binding at 2 µM", "setting": "[6]", "result": 75, "unit": "%"},
      {"measurement": "remaining binding at 2 µM", "setting": "[7]", "result": 87, "unit": "%"},
      {"measurement": "remaining binding at 2 µM", "setting": "[8]", "result": 89, "unit": "%"},
      {"measurement": "remaining binding at 2 µM", "setting": "[9]", "result": 100, "unit": "%"},
      {"measurement": "remaining binding at 2 µM", "setting": "[10]", "result": 100, "unit": "%"},
      {"measurement": "remaining binding at 2 µM", "setting": "[11]", "result": 100, "unit": "%"},
      {"measurement": "remaining binding at 2 µM", "setting": "[12]", "result": 97, "unit": "%"},
      {"measurement": "remaining binding at 2 µM", "setting": "[13]", "result": 79, "unit": "%"},
      {"measurement": "remaining binding at 2 µM", "setting": "[14]", "result": 76, "unit": "%"},
      {"measurement": "Percent Control", "setting": "[15]", "result": 55, "unit": "%"},
      {"measurement": "remaining binding at 2 µM", "setting": "[16]", "result": 73, "unit": "%"},
      {"measurement": "remaining binding at 2 µM", "setting": "[17]", "result": 94, "unit": "%"},
      {"measurement": "remaining binding at 2 µM", "setting": "[18]", "result": 67, "unit": "%"},
      {"measurement": "remaining binding at 2 µM", "setting": "[19]", "result": 61, "unit": "%"},
      {"measurement": "remaining binding at 2 µM", "setting": "[20]", "result": 56, "unit": "%"},
      {"measurement": "remaining binding at 2 µM", "setting": "[21]", "result": 46, "unit": "%"},
      {"measurement": "remaining binding at 2 µM", "setting": "[22]", "result": 68, "unit": "%"},
      {"measurement": "remaining binding at 2 µM", "setting": "[23]", "result": 78, "unit": "%"},
      {"measurement": "remaining binding at 2 µM", "setting": "[24]", "result": 72, "unit": "%"},
      {"measurement": "remaining binding at 2 µM", "setting": "[25]", "result": 98, "unit": "%"},
      {"measurement": "remaining binding at 2 µM", "setting": "[26]", "result": 60, "unit": "%"},
      {"measurement": "remaining binding at 2 µM", "setting": "[27]", "result": 100, "unit": "%"},
      {"measurement": "remaining binding at 2 µM", "setting": "[28]", "result": 100, "unit": "%"},
      {"measurement": "remaining binding at 2 µM", "setting": "[29]", "result": 98, "unit": "%"},
      {"measurement": "remaining binding at 2 µM", "setting": "[30]", "result": 100, "unit": "%"},
      {"measurement": "remaining binding at 2 µM", "setting": "[31]", "result": 91, "unit": "%"},
      {"measurement": "remaining binding at 2 µM", "setting": "[32]", "result": 91, "unit": "%"},
      {"measurement": "remaining binding at 2 µM", "setting": "[33]", "result": 65, "unit": "%"},
      {"measurement": "remaining binding at 2 µM", "setting": "[34]", "result": 91, "unit": "%"},
      {"measurement": "remaining binding at 2 µM", "setting": "[35]", "result": 94, "unit": "%"},
      {"measurement": "remaining binding at 2 µM", "setting": "[36]", "result": 71, "unit": "%"},
      {"measurement": "remaining binding at 2 µM", "setting": "[37]", "result": 58, "unit": "%"},
      {"measurement": "remaining binding at 2 µM", "setting": "[38]", "result": 89, "unit": "%"},
      {"measurement": "remaining binding at 2 µM", "setting": "[39]", "result": 83, "unit": "%"}
    ]}
  ]
}
